Laboratory results published in US20100184699A1, “Peptide Derived From Prostate-Related Protein As Cancer Vaccine Candidate For Prostate Cancer Patient Who Is Positive For Hla-A3 Super-Type Allele Molecule” (priority 2005, published 2010).
Values joined by “and” are separate entries in the source; they are usually repeats but may differ in a detail not shown here. Equal entries are not always repeated.

Columns and labels:
[1] = tested on: peptide-specific IgG in plasma of prostate cancer patients and healthy donors; assay: Detection of peptide-specific IgG in plasma by ELISA; type: binding, human; details: for IgG reactive to peptide in plasma: 1:100-diluted plasma
[2] = tested on: C1R-A11, -A31 or -A33 cells pulsed with corresponding peptide; assay: Induction of peptide-specific CTLs from PBMCs (IFN-γ ELISA); type: cell-based, human

GTLKKEGWR (PSMA 403-411) [PSMA-derived peptide]
IgG reactive to peptide in plasma ([1]; Healthy donor 3, A31): + (IgG reactive to a corresponding peptide was judged to be positive when a difference of the optical density (OD) in a 1:100-diluted plasma was more than 100)
IgG reactive to peptide in plasma ([1]; Healthy donor 9, A11): + (IgG reactive to a corresponding peptide was judged to be positive when a difference of the optical density (OD) in a 1:100-diluted plasma was more than 100)
IgG reactive to peptide in plasma, Total (positive/tested) ([1]; Healthy donors): 2/9
IgG reactive to peptide in plasma ([1]; Prostate cancer patient 1, A31): + (IgG reactive to a corresponding peptide was judged to be positive when a difference of the optical density (OD) in a 1:100-diluted plasma was more than 100)
IgG reactive to peptide in plasma ([1]; Prostate cancer patient 2, A31): + (IgG reactive to a corresponding peptide was judged to be positive when a difference of the optical density (OD) in a 1:100-diluted plasma was more than 100)
IgG reactive to peptide in plasma ([1]; Prostate cancer patient 3, A31): + (IgG reactive to a corresponding peptide was judged to be positive when a difference of the optical density (OD) in a 1:100-diluted plasma was more than 100)
IgG reactive to peptide in plasma ([1]; Prostate cancer patient 4, A31): + (IgG reactive to a corresponding peptide was judged to be positive when a difference of the optical density (OD) in a 1:100-diluted plasma was more than 100)
IgG reactive to peptide in plasma ([1]; Prostate cancer patient 5, A31): + (IgG reactive to a corresponding peptide was judged to be positive when a difference of the optical density (OD) in a 1:100-diluted plasma was more than 100)
IgG reactive to peptide in plasma ([1]; Prostate cancer patient 6, A31): + (IgG reactive to a corresponding peptide was judged to be positive when a difference of the optical density (OD) in a 1:100-diluted plasma was more than 100)
IgG reactive to peptide in plasma ([1]; Prostate cancer patient 7, A11): + (IgG reactive to a corresponding peptide was judged to be positive when a difference of the optical density (OD) in a 1:100-diluted plasma was more than 100)
IgG reactive to peptide in plasma ([1]; Prostate cancer patient 8, A11): + (IgG reactive to a corresponding peptide was judged to be positive when a difference of the optical density (OD) in a 1:100-diluted plasma was more than 100)
IgG reactive to peptide in plasma ([1]; Prostate cancer patient 9, A11): + (IgG reactive to a corresponding peptide was judged to be positive when a difference of the optical density (OD) in a 1:100-diluted plasma was more than 100)
IgG reactive to peptide in plasma ([1]; Prostate cancer patient 10, A11): + (IgG reactive to a corresponding peptide was judged to be positive when a difference of the optical density (OD) in a 1:100-diluted plasma was more than 100)
IgG reactive to peptide in plasma ([1]; Prostate cancer patient 12, A11): + (IgG reactive to a corresponding peptide was judged to be positive when a difference of the optical density (OD) in a 1:100-diluted plasma was more than 100)
IgG reactive to peptide in plasma ([1]; Prostate cancer patient 13, A11): + (IgG reactive to a corresponding peptide was judged to be positive when a difference of the optical density (OD) in a 1:100-diluted plasma was more than 100)
IgG reactive to peptide in plasma ([1]; Prostate cancer patient 14, A33): + (IgG reactive to a corresponding peptide was judged to be positive when a difference of the optical density (OD) in a 1:100-diluted plasma was more than 100)
IgG reactive to peptide in plasma ([1]; Prostate cancer patient 15, A33): + (IgG reactive to a corresponding peptide was judged to be positive when a difference of the optical density (OD) in a 1:100-diluted plasma was more than 100)
IgG reactive to peptide in plasma ([1]; Prostate cancer patient 16, A33): + (IgG reactive to a corresponding peptide was judged to be positive when a difference of the optical density (OD) in a 1:100-diluted plasma was more than 100)
IgG reactive to peptide in plasma ([1]; Prostate cancer patient 17, A33): + (IgG reactive to a corresponding peptide was judged to be positive when a difference of the optical density (OD) in a 1:100-diluted plasma was more than 100)
IgG reactive to peptide in plasma ([1]; Prostate cancer patient 18, A33): + (IgG reactive to a corresponding peptide was judged to be positive when a difference of the optical density (OD) in a 1:100-diluted plasma was more than 100)
IgG reactive to peptide in plasma ([1]; Prostate cancer patient 19, A33): + (IgG reactive to a corresponding peptide was judged to be positive when a difference of the optical density (OD) in a 1:100-diluted plasma was more than 100)
IgG reactive to peptide in plasma ([1]; Prostate cancer patient 20, A33): + (IgG reactive to a corresponding peptide was judged to be positive when a difference of the optical density (OD) in a 1:100-diluted plasma was more than 100)
IgG reactive to peptide in plasma, Total (positive/tested) ([1]; Prostate cancer patients): 19/20
frequency of detection of peptide-reactive IgG ([1]; plasma of prostate cancer patients, compared within PSA, PAP or PSMA peptides): more frequently
Total (positive / tested) [2]: 1/13 and 3/9
